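Briefly, cells in 96-well plates were exposed to five compound concentrations for 48 h, and endpoints were estimated by linear interpolation. Here, GI50 denotes the concentration required for 50% inhibition of growth. At the TGI there is no net growth.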
Legend:
Assay in all cases: DTP human tumour cell line panel, 48 h; in the data active = GI50 below about 0.43 µM; inactive = the rest
[1] = tested on: HCT-116 colon
[2] = tested on: SNB-75 CNS
[3] = tested on: SR leukemia
[4] = tested on: SK-MEL-2 melanoma
[5] = tested on: HS 578T breast
[6] = tested on: NCI-H460 lung
[7] = tested on: SN12C renal
[8] = tested on: MOLT-4 leukemia
[9] = tested on: NCI/ADR-RES ovarian
[10] = tested on: OVCAR-5 ovarian
[11] = tested on: MALME-3M melanoma
[12] = tested on: HOP-62 NSCLC
[13] = tested on: COLO 205 colon
[14] = tested on: MDA-MB-231 breast
[15] = tested on: SF-268 CNS
[16] = tested on: PC-3 prostate
[17] = tested on: MCF7 breast
[18] = tested on: MDA-MB-468 breast
[19] = tested on: NCI-H226 lung
[20] = tested on: UACC-62 melanoma
[21] = tested on: SF-539 CNS
[22] = tested on: SK-OV-3 ovarian
[23] = tested on: U251 CNS
[24] = tested on: T-47D breast
[25] = tested on: SF-295 CNS
[26] = tested on: UACC-257 melanoma
[27] = tested on: EKVX NSCLC
[28] = tested on: 786-0 renal
[29] = tested on: OVCAR-3 ovarian
[30] = tested on: KM12 colon
[31] = tested on: IGROV1 ovarian
[32] = tested on: TK-10 renal
[33] = tested on: ACHN renal
[34] = tested on: SNB-19 CNS
[35] = tested on: SK-MEL-5 melanoma
[36] = tested on: CCRF-CEM leukemia
[37] = tested on: M14 melanoma
[38] = tested on: OVCAR-4 ovarian
[39] = tested on: RPMI-8226 leukemia
[40] = tested on: RXF 393 renal
[41] = tested on: BT-549 breast
[42] = tested on: HT29 colon
[43] = tested on: A549 NSCLC
[44] = tested on: NCI-H23 lung
[45] = tested on: HOP-92 NSCLC
[46] = tested on: HCC-2998 colon
[47] = tested on: A498 renal
[48] = tested on: MDA-MB-435
[49] = tested on: LOX IMVI melanoma
[50] = tested on: HL-60(TB) leukemia
[51] = tested on: UO-31 renal
[52] = tested on: DU-145 prostate
[53] = tested on: SW-620 colon
[54] = tested on: SK-MEL-28 melanoma
[55] = tested on: HCT-15 colon
[56] = tested on: K-562 leukemia
[57] = tested on: OVCAR-8 ovarian
[58] = tested on: CAKI-1 renal
[59] = tested on: NCI-H522 lung

O=C(Cc1ccc2c(c1)CN(C1CCC(=O)NC1=O)C2=O)NCCc1ccccc1 (centres undefined)
> 85.7 µM: TGI [22]
0.991 µM: TGI [35]
1.08 µM: TGI [31]
0.0755 µM: TGI [41]
active: GI50 [2] 0.042 µM | GI50 [4] 0.225 µM | GI50 [5] 0.0385 µM | GI50 [7] 0.188 µM | GI50 [8] < 0.01 µM | GI50 [10] 0.145 µM | GI50 [11] 0.0135 µM | GI50 [12] 0.0309 µM | GI50 [13] 0.0438 µM | GI50 [14] < 0.01 µM | GI50 [16] 0.0367 µM | GI50 [17] 0.2 µM | GI50 [18] < 0.01 µM | GI50 [19] 0.0685 µM | GI50 [24] 0.0218 µM | GI50 [28] 0.124 µM | GI50 [30] 0.276 µM | GI50 [31] 0.0336 µM | GI50 [34] 0.0767 µM | GI50 [35] 0.156 µM | GI50 [36] < 0.01 µM | GI50 [37] 0.114 µM | GI50 [40] 0.402 µM | GI50 [41] 0.0192 µM | GI50 [45] 0.0134 µM | GI50 [46] 0.0451 µM | GI50 [47] 0.297 µM | GI50 [50] < 0.01 µM | GI50 [51] 0.226 µM | GI50 [53] 0.0391 µM | GI50 [55] 0.166 µM | GI50 [57] 0.0323 µM | GI50 [58] 0.276 µM
3.1 µM: TGI [5]
1.41 µM: TGI [19]
inactive: GI50 [1] 67.9 µM | GI50 [3] > 76.5 µM | GI50 [6] > 100 µM | GI50 [9] 5.94 µM | GI50 [15] 0.51 µM | GI50 [20] 2.46 µM | GI50 [21] 0.564 µM | GI50 [22] 0.484 µM | GI50 [23] > 25.1 µM | GI50 [25] 0.53 µM | GI50 [26] > 100 µM | GI50 [29] 2.24 µM | GI50 [32] 0.727 µM | GI50 [33] 5.32 µM | GI50 [38] 0.436 µM | GI50 [39] 0.441 µM | GI50 [42] 0.53 µM | GI50 [43] 0.663 µM | GI50 [44] > 60.8 µM | GI50 [48] 0.551 µM | GI50 [49] > 100 µM | GI50 [52] 20.8 µM | GI50 [54] 0.589 µM | GI50 [56] 0.581 µM | GI50 [59] > 20.2 µM
30.5 µM: TGI [10]
> 28.7 µM: TGI [34]
> 100 µM: TGI [1] | TGI [3] | TGI [6] | TGI [8] | TGI [9] | TGI [15] | TGI [16] | TGI [17] | TGI [20] | TGI [21] | TGI [23] | TGI [25] | TGI [26] | TGI [27] | TGI [28] | TGI [29] | TGI [30] | TGI [32] | TGI [33] | TGI [39] | TGI [42] | TGI [43] | TGI [44] | TGI [48] | TGI [49] | TGI [52] | TGI [53] | TGI [54] | TGI [56] | TGI [58] | TGI [59]
1.28 µM: TGI [13]
4.75 µM: TGI [55]
> 24.1 µM: TGI [40]
0.414 µM: TGI [24]
> 21.4 µM: TGI [57]
> 56.4 µM: TGI [37]
0.0746 µM: TGI [11]
1.32 µM: TGI [12] | TGI [46]
0.146 µM: TGI [45]
1.82 µM: TGI [4]
0.0102 µM: TGI [14]
0.0168 µM: TGI [18]
2.2 µM: TGI [2]
> 70.9 µM: TGI [38]
6.27 µM: TGI [51]
2.19 µM: TGI [50]
> 30.9 µM: TGI [7]
7.76 µM: TGI [47]

CCN1C(=O)N(CC)C2NNC(Sc3c(C(=O)O)c4ccccc4n(CCC(C)C)c3=O)=NC21 (centres undefined)
53.5 µM: TGI [30]
47.4 µM: TGI [45]
62.8 µM: TGI [28]
69.1 µM: TGI [22]
17.5 µM: TGI [10]
3.33 µM: TGI [18]
91.4 µM: TGI [41]
31.2 µM: TGI [4]
5.5 µM: TGI [48]
active: GI50 [18] 0.386 µM
21 µM: TGI [19]
18.5 µM: TGI [49]
9.19 µM: TGI [2]
8.42 µM: TGI [59]
19.8 µM: TGI [20] | TGI [58]
22.5 µM: TGI [51]
15.7 µM: TGI [14]
> 100 µM: TGI [1] | TGI [3] | TGI [8] | TGI [15] | TGI [16] | TGI [24] | TGI [36] | TGI [37] | TGI [38] | TGI [39] | TGI [56]
13.7 µM: TGI [55]
18.1 µM: TGI [31]
63.8 µM: TGI [32]
15.1 µM: TGI [17]
13.3 µM: TGI [6] | TGI [42]
51.7 µM: TGI [57]
inactive: GI50 [1] 4.12 µM | GI50 [2] 2.24 µM | GI50 [3] 22 µM | GI50 [4] 9.35 µM | GI50 [5] 3.37 µM | GI50 [6] 3.43 µM | GI50 [7] 4.09 µM | GI50 [8] 4.79 µM | GI50 [9] 2.25 µM | GI50 [10] 3.06 µM | GI50 [11] 11.2 µM | GI50 [12] 6.68 µM | GI50 [13] 3.65 µM | GI50 [14] 3.69 µM | GI50 [15] 10.4 µM | GI50 [16] 6.19 µM | GI50 [17] 0.878 µM | GI50 [19] 3.87 µM | GI50 [20] 4.11 µM | GI50 [21] 2.11 µM | GI50 [22] 7.58 µM | GI50 [23] 4.33 µM | GI50 [24] 20.5 µM | GI50 [25] 3.3 µM | GI50 [26] 19.6 µM | GI50 [27] 3.5 µM | GI50 [28] 14.5 µM | GI50 [29] 5 µM | GI50 [30] 4.12 µM | GI50 [31] 3.06 µM | GI50 [32] 17.5 µM | GI50 [33] 5.75 µM | GI50 [34] 4.56 µM | GI50 [35] 4.37 µM | GI50 [36] 4.62 µM | GI50 [37] 8.47 µM | GI50 [38] 17.9 µM | GI50 [39] 4.61 µM | GI50 [40] 2.16 µM | GI50 [41] 35.8 µM | GI50 [42] 3.33 µM | GI50 [43] 6.07 µM | GI50 [44] 4.34 µM | GI50 [45] 16.5 µM | GI50 [46] 2.41 µM | GI50 [47] 19.6 µM | GI50 [48] 2.13 µM | GI50 [49] 5.11 µM | GI50 [50] 3.12 µM | GI50 [51] 4.07 µM | GI50 [52] 5.64 µM | GI50 [53] 6.5 µM | GI50 [54] 9.69 µM | GI50 [55] 2.75 µM | GI50 [56] 3.69 µM | GI50 [57] 5.54 µM | GI50 [58] 5.21 µM | GI50 [59] 2.52 µM
9.31 µM: TGI [40]
7.91 µM: TGI [46]
31 µM: TGI [5] | TGI [53]
19.4 µM: TGI [33]
54.3 µM: TGI [47]
36.9 µM: TGI [23]
31.4 µM: TGI [54]
34.1 µM: TGI [50]
25.1 µM: TGI [34]
65.7 µM: TGI [52]
17.7 µM: TGI [27]
5.8 µM: TGI [9]
43 µM: TGI [12]
28.3 µM: TGI [11]
16.6 µM: TGI [44]
71.5 µM: TGI [26]
24.2 µM: TGI [43]
13.2 µM: TGI [25]
18.2 µM: TGI [7]
5.63 µM: TGI [21]
11.6 µM: TGI [13]
21.3 µM: TGI [29]
16.4 µM: TGI [35]

Reference: PubChem BioAssay (NCI)
